From patent US20070117220A1, “METHOD AND APPARATUS FOR MEASURING FLUORESCENCE POLARIZATION IN LAB-ON-A-CHIP” (priority 2005, published 2007)

What was measured:
[1] = target: T1, streptavidin (Streptomyces avidinii, UniProt P22629); assay: Fluorescence polarization of biotin/streptavidin complex in lab-on-a-chip microchannel, apparatus of FIG. 2 with optical chopper (Embodiment 3); format: binding
Experimental: Fluorescence polarization for the complex of biotin and streptavidin was measured using the apparatus of FIG. 2 including the optical chopper of the invention. In this Embodiment, a lab-on-a-chip made of glass and composed of a microchannel having a depth of 12 μm and a width of 79 μm was used to measure fluorescence polarization for a complex of biomolecule-fluorescently labeled biomaterial.
For the measurement, the samples were respectively filled in the reservoir of the lab-on-a-chip as following three cases: (A) wherein 4 μM of tetramethylrhodamine TMR was filled in the reservoir; (B) wherein 4 μM of TMR-biotin was put into the reservoir; and (C) wherein 4 μM of TMR-biotin and 1 μM of streptavidin were filled in the reservoirs.
Fluorescence polarizations FP for the above samples were measured in the microchannel of the lab-on-a-chip using the apparatus of FIG. 2 including the optical chopper.
As a result, in case of (A), fluorescence polarization was measured 0.047; in case of (B), it was 0.062; and in case of (C), it was 0.240, which were increased the complex of TMR-biotin and streptavidin was formed as shown in FIG. 7A.

[2] = target: T1, streptavidin; assay: Fluorescence polarization of biotin/streptavidin complex in lab-on-a-chip microchannel, apparatus of FIG. 2 without optical chopper (Embodiment 2); format: binding
Experimental: Fluorescence polarization FP for the complex of biotin and streptavidin in a lab-on-a-chip was measured using the apparatus of FIG. 2, wherein the optical chopper was not inserted. In this Embodiment, a lab-on-a-chip made of glass and composed of a microchannel having a depth of 12 μm and a width of 79 um was used instead of the 100 μL cuvette. After filling 100 μM of tetramethylrhodamine TMR solution in the microchannel of the lab-on-a-chip using a vacuum pump, a G-factor value was obtained in the same manner described above in Embodiment 1. […] Subsequently, the above samples filled in the reservoirs 1 and 2 were injected into the microchannel using the vacuum pump 6 of the lab-on-a-chip to measure fluorescence polarizations FP for the samples at a detection point 5 of the lab-on-a-chip.
As a result, in case of (A), fluorescence polarization was measured 0.085; in case of (B), it was 0.097; in case of (C), it was 0.036; in case of (D), it was 0.040; and in case of (E), it was 0.064, which were deviated from the expectations of increases in fluorescence polarization FP as not increased as the complex of TMR-biotin and streptavidin was formed as shown in FIG. 6A.
Fluorescence polarizations were recalculated from the measured values by subtracting the offset values, the offset being measured in the microchannel when only the buffer solution was filled. […]

[3] = test system: TMR-α-casein; assay: Protease assay by fluorescence polarization of TMR-α-casein substrate, commercial fluorescence spectrometer; format: biochemical; details: time course, varying enzyme concentrations (unit/mL); FIGS. 9A-9D
Experimental: Changes of fluorescence polarization FP were measured using the method and apparatus for measuring fluorescence polarization of the present invention, employing TMR-α-casein as a substrate, composed of TMR as a fluorescent probe and α-casein, a universal protein substrate reacted with various proteases.
First, TMR-α-casein, a fluorescently labeled substrate for proteases, was prepared by applying one of the well-known methods [Analytical Biochemistry (,1996) 243, 1-7] as follows.
10 mg/mL of α-casein (sigma) and 5 mg/mL of 5-carboxytetramethylrhodamine succinimidyl ester were mixed in 0.1 M sodium bicarbonate buffer solution (pH 9.0) for reaction at room temperature for two and a half hours. The resulting TMR-α-casein was purified by passing the reaction mixture over a HiTrap desalting column (Sephadex G-25 Amersham Bioscience), and used after quantitation of the amounts of protein and fluorescence.
Proteinase K, trypsin, papain and elastase were used as proteases to react at increasing concentrations. First, as a comparative example, the process that the TMR-α-casein substrate was degraded by the proteases was analyzed using a commercial fluorescence spectrometer (Perkin Elmer). […]

[4] = test system: TMR-α-casein; assay: On-chip protease assay by fluorescence polarization of TMR-α-casein substrate, lab-on-a-chip with optical chopper; format: biochemical; details: 1 μM TMR-α-casein final in channel; reaction time 5.1 seconds; FIGS. 10A-10D
Experimental: Next, the protease assays were carried out using an apparatus for measuring fluorescence polarization including the optical chopper of FIG. 2 on a lab-on-a-chip of glass composed of a channel 1 C1, in which substrates or enzymes flowed, and a channel 2 C2, in which the reaction occurred, the channels having a depth of 12 μm and a width of 79 μm as depicted in FIG. 8.
For on-chip protease assays, the substrates and the enzymes should mix completely prior to the enzyme reactions. […] […] Therefore, the reaction time was confirmed to be 5.1 seconds after mixing of the substrate with the enzymes.
Subsequently, to carry out the protease assays in the lab-on-a-chip,2 μM of TMR-α-casein (the final concentration in the channel was 1 μM) was placed in a substrate reservoir and the respective proteases were placed in an enzyme reservoir at increasing concentrations in the same manner as the comparative example. Then, the two substances were allowed to flow into a channel 2 C2, a main channel, to cause a reaction. Fluorescence polarization FP was then measured at the detection point, positioned 32 mm away from the junction, from which the substrates and the enzymes flowed in.
Again, it was noted that fluorescence polarization values plateaued when the concentration of the enzymes reached at the point generating a specific rate or more.

Row | change of fluorescence polarization values of TMR-α-casein with enzyme concentration [4] | Compound | change of fluorescence polarization values of TMR-α-casein as the reaction proceeded [3] | other results
1 | – | O=C(O)CCCC[C@@H]1SC[C@@H]2NC(=O)N[C@@H]21 [D-biotin] | – | change of fluorescence polarization by competitive inhibition of TMR-biotin/streptavidin binding ([1]; increasing concentrations of D-biotin supplied to the complex (4 μM TMR-biotin, 1 μM streptavidin) in the microchannel, FIG. 7B): decreased with the increasing concentrations
2 | – | CN(C)c1ccc2c(-c3ccccc3C(=O)[O-])c3ccc(N(C)C)cc3[o+]c2c1 [TMR, tetramethylrhodamine] | – | fluorescence polarization recalculated by subtracting the offset values ([2]; 1.25 μM probe only in reservoir 1, buffer offset subtracted): 0.020; fluorescence polarization (as measured, offset not subtracted) ([2]; 1.25 μM probe only in reservoir 1, no chopper): 0.085; fluorescence polarization ([1]; 4 μM probe only, microchannel, optical chopper): 0.047
3 | decreased with increasing concentrations | elastase | decreased | –
4 | decreased with increasing concentrations | trypsin | decreased | –
